According to patent US20030143733A1, “Tetrapeptide” (La Jolla Cancer Research Foundation, priority 1985, published 2003):

Key:
[1] = tested on: normal rat kidney cells (NRK); test: Cell attachment promoting activity assay (peptide coupled via SPDP to rabbit IgG immobilized on plastic); assay type: cell-based; details: freshly trypsinized NRK cells, one hour incubation
Method: (§1) Those peptides having a COOH-terminal cystine residue were assayed for their activity in promoting cell attachment by first attaching them via the heterobifunctional crosslinker SPDP (N-succinimidyl 3-(2-pyridyldithio) propionate, Sigma, St. Louis, Mo.) to rabbit IgG which was immobilized on plastic. The attachment assay was then carried out as described by Ruoslahti, E. et al., Methods Enzymology 82:803-831 (1981) using freshly trypsinized normal rat kidney cells (NRK). After a one hour incubation, those cells which had attached were fixed, stained and quantitated using either an Artek cell counter or a multiscan spectrophotometer. In all cases, maximum attachment was about 80-90% of the cells plated. The relative activity of each peptide is indicated by the concentration of the peptides in nmoles/ml necessary to achieve half-maximal activity, or, where accurate quantitation was not possible, by the crosses at the right of FIG. 1, and by the graph in FIG. 2.

[2] = tested on: attachment of cells to a fibronectin-coated substrate; test: Inhibition of cell attachment to fibronectin-coated substrate by solubilized peptide; assay type: cell-based; details: peptide in solubilized form combined with free cells
Method: as §1, with “In all cases, maximum attachment was about 80-90% of the cells plated.” left out
If the mechanism of cell attachment involves the recognition of the amino acid sequence of the tetrapeptide by a receptor on the cell, then it could be postulated that attachment could be inhibited by preventing this recognition by “blocking” the receptor. […] In separate experiments, various concentrations of the tetrapeptide (Arg-Gly-Asp-Ser) and a hexapeptide, Pro-Arg-Gly-Asp-Ser-Gly in a solubilized form were combined with the free cells, and attachment activity measured as above.

| Substance | cell attachment promoting activity [1] | inhibition of normal attachment of cells to a fibronectin-coated substrate [2] |
| --- | --- | --- |
| RVDSPAC [peptide with substitution of the glycine with the bulky valine residue] | abolished the activity | – |
| H-Arg-Gly-Asp-Ser-OH (RGDS; printed: Arg-Gly-Asp-Ser) | had the property of causing cell attachment | inhibit the normal attachment of cells |
| PRGDSG [Pro-Arg-Gly-Asp-Ser-Gly] | – | inhibit the normal attachment of cells |
